The subject of data set [1] is Enterococcus faecalis (ATCC 29212). The conditions noted are these: 18 hrs at 37° C., LB medium.
Experimental: (§5) The following strains were used for the antibacterial activity tests: Escherichia coli (ATCC 25922 and ATCC 35218), Staphylococcus aureus (ATCC 25923), Enterococcus faecalis (ATCC 29212), Bacillus megaterium and Pseudomonas aeruginosa (ATCC 27853).
(§6) For each strain, a standard inoculum of 10^5 to 10^6 bacteria/mL (exponential growth phase) was prepared. To this end, a colony isolated on LB agar previously inoculated with one of the strains was cultured in 10 mL of LB broth medium. Liquid cultures were then incubated for 2 to 3 hrs at 37° C. with shaking for the bacteria to reach exponential growth phase. Each bacterial suspension was diluted in LB medium to an OD630nm of 0.01 which corresponds to a concentration of 10^5-10^6 cfu/mL (cfu: colony forming unit).
(§7) The minimum inhibitory concentration (MIC) of each peptide was determined by a test of growth inhibition in broth medium. […] The test was performed in a sterile 96-well microtiter plate. A series of increasing concentrations of each peptide (1 to 400 μM) was first prepared in sterile MilliQ water containing 5% dimethyl sulphoxide (DMSO). […] 50 μL of peptide were aliquoted into each well with 50 μL of bacterial suspension (10^5-10^6 cfu/mL). The microtiter plate was then incubated for 18 hrs at 37° C. with shaking. Bacterial growth was determined by measuring OD at 630 nm (turbidity) on a plate reader. […]
For data set [2], the system named is Escherichia coli ML-35p.
Experimental: as §6
(§8) The minimum inhibitory concentration (MIC) of each peptide was determined by a test of growth inhibition in broth medium. […] The test was performed in a sterile 96-well microtiter plate. A series of increasing concentrations of each peptide (1 to 400 μM) was first prepared in sterile MilliQ water containing 5% dimethyl sulphoxide (DMSO). […] 50 μL of peptide were aliquoted into each well with 50 μL of bacterial suspension (10^5-10^6 cfu/mL). The microtiter plate was then incubated for 18 hrs at 37° C. with shaking. Bacterial growth was determined by measuring OD at 630 nm (turbidity) on a plate reader. Tests were carried out in triplicate for each peptide concentration.
The growth inhibition negative control was obtained by replacing the solution containing the peptide with 50 μL of sterile MilliQ water containing 5% DMSO. […]
For data set [3], the system named is Escherichia coli (ATCC 35218). The conditions noted are these: 18 hrs at 37° C., LB medium.
Experimental: as §5, §6, §7
Data set [4] relates to human monocyte cell line THP-1. The conditions noted are these: THP-1, 72 hrs, MTT test (FIG. 3), at antimicrobial concentrations.
Experimental: The cytotoxic activity of the antimicrobial peptides was determined on a human monocyte cell line THP-1. Cells were cultured in RPMI medium (10% FCS, 100 U/mL penicillin, 100 μg/mL streptomycin) until reaching exponential growth phase. After counting in a Thoma counting chamber, cell density was adjusted to 6.25×10^5 cells/mL in RPMI 1640 medium. Five-fold concentrated solutions of antimicrobial peptides were prepared in this RPMI medium (300 to 4.7 μM).
Monocytes were aliquoted at 80 μL of cell suspension per well (corresponding to 5×10^4 monocytes/well or 5×10^5 cells/mL final) and mixed with 20 μL of peptide solution (60 to 0.94 μM final concentration). Negative and positive controls were carried out according to the same protocol as for the tests of anti-Leishmania activity. Experiments were done in triplicate for each peptide concentration. Cells were incubated at 37° C., in a 5% CO2 atmosphere for 72 hrs.
After 72 hours, the number of viable THP-1 cells was calculated indirectly by the MTT test (Mosmann, 1983). […] Blue formazan can be detected spectrophotometrically at 570 nm.
A 10 mg/mL MTT solution in PBS buffer (pH 7.4), filtered on a 0.45 μm filter, was aliquoted at 10 μL per well. Plates were then incubated for 4 hrs at 37° C. […] The OD at 570 nm of each well was then measured (Victor plate reader, PerkinElmer) to calculate the IC50.
Data set [5] has as its system Staphylococcus aureus (ATCC 25923). The conditions noted are these: 18 hrs at 37° C., LB medium.
Experimental: as §5, §6, §7
The test system of data set [6] is Candida albicans (ATCC 90028). The conditions noted are these: YPD medium, 30° C.
Experimental: as §8
(§9) These strains were first grown on YPD agar for a minimum of 48 hrs. Yeast suspensions were then prepared, exactly as for bacteria, and adjusted to 10^5-10^6 cfu/mL in YPD broth medium.
(§10) The antifungal activity test corresponds to the growth inhibition test in broth medium used for the bacteria (see above) in which LB medium was replaced by YPD medium. Fungal strains were incubated at 30° C.
Data set [7] deals with human erythrocytes. Put plainly: Hemolytic test. Format: cell-based. The conditions noted are these: relative to temporin-SHa. As for the experimental part: (§1) The hemolytic activity of the antimicrobial peptides was assessed using human erythrocytes from healthy donors. Red blood cell hemolysis is manifested by the release into the reaction medium of hemoglobin, the concentration of which is determined spectrophotometrically at 450 nm.
(§2) Red blood cells were separated from plasma and white blood cells by centrifugation of human blood (900 g, 10 min). The pellet containing red blood cells was washed three times with PBS buffer, pH 7.4. After counting on a Malassez cell, a stock solution of 2.10^7 red blood cells/mL was prepared in the same buffer. A series of concentrations of the peptides to be tested was prepared (1 to 200 μM).
(§3) The test was carried out as follows: 100 μL of the different peptide concentrations were added to 100 μL of the red blood cell suspension. After 1 hr of incubation at 37° C. followed by centrifugation (12,000 g, 15 sec), absorbance of the supernatant was measured at 450 nm. The negative control for this test (0% hemolysis) contained 100 μL of PBS buffer in place of the peptide solution. The positive control (100% hemolysis) contained 100 μL of 0.1% Triton in place of the peptide solution.
(§4) The LC50 value obtained is the mean of three experiments carried out in triplicate and corresponds to the peptide concentration inducing hemolysis of 50% of the cells.

Data set [8] can be described thus: Hemolytic test. The data set is classed as cell-based. Particulars: erythrocytes (washed red blood cells), pH 7.4; human erythrocytes, 1 hr at 37° C., concentration inducing hemolysis of 50% of the cells; read-out: LC50 erythrocytes. Here is the method: as §1, §2, §3, §4
Data set [9] concerns Escherichia coli (ATCC 25922). Particulars: 18 hrs at 37° C., LB medium.
Experimental: as §5, §6, §7
Data set [10] concerns Gram-negative strains. Particulars: summary in text for all Gram-negative strains tested.
Experimental: as §5, §6, §7
Data set [11] concerns Bacillus megaterium. Particulars: 18 hrs at 37° C., LB medium.
Experimental: as §5, §6, §7
Data set [12] has as its system Saccharomyces cerevisiae. Particulars: YPD medium, 30° C.
Experimental: as §8, §9, §10
Data set [13] has as its system Pseudomonas aeruginosa (ATCC 27853). Put plainly: Growth inhibition test in broth medium (MIC). The data set is classed as cell-based. Particulars: 18 hrs at 37° C., LB medium.
Experimental: as §5, §6, §7
In data set [14] the target is Leishmania infantum promastigotes. The data set is classed as cell-based. The conditions noted are these: 72 hours at 26° C., luciferase luminescence (FIG. 2 B), read-out: IC50, promastigote form. As for the experimental part: The antiparasitic activity of the peptides was evaluated on two forms of the parasite Leishmania infantum, the promastigote form and the amastigote form.
The tests of anti-Leishmania activity were carried out with a Leishmania infantum cell line αNEO-αLUC This cell line was obtained by transforming Leishmania infantum strain MHOM/MA/67/ITMAP-263 with the vector pGM αNEO-αLUC containing the luciferase reporter gene (LUC) and the neomycin resistance gene (NEO) such as described in Roy et al. (2000). It was maintained in culture in its two forms, promastigote and amastigote.
Leishmania infantum promastigotes were maintained at 26° C. by one or two weekly passages depending on the number of parasites in the inoculum, in SDM 79 medium supplemented with 10 to 20% decomplemented foetal calf serum and […] porcine haemin and in the presence of 100 U/mL penicillin and 100 μg/mL streptomycin (Brun & Shonenberger, 1979). […] Cell densities were determined by flow cytometry in the presence of propidium iodide on a Facscan cytometer (Excalibur, Becton-Dickinson, Ivry, France).
Emitted luminescence was measured with a luminescence plate reader (Victor, PerkinElmer). […]
The percentage growth was calculated according to the following formula: % growth=[(L mean−bgd)peptide×100]/(L mean−bgd)control […]

Data set [15] concerns Candida parapsilosis (ATCC 22019). Put plainly: Antifungal growth inhibition test in YPD broth (MIC). Format: cell-based. Particulars: YPD medium, 30° C. As for the experimental part: Fungal strains were incubated at 30° C.

The values that follow come from US9522942B2, “Analogs of temporin-SHa and uses thereof” (UNIVERSITE PIERRE ET MARIE CURIE (PARIS 6), priority 2009, dated 2016).

Entries after “also recorded” stand apart in the source; their conditions may differ. Ends that are not written are not given here.

By MIC is commonly meant the lowest concentration found to suppress growth. Lower therefore signals inhibition by little substance. A word on the IC50: it is the midpoint of a concentration-inhibition curve. Regarding FLKGIVGMLGKLF-NH2 [[K^3]temporin-SHa], the MIC was found to be 10 µM in [1]; 3 µM in [2]; 3 µM in data set [3]; 3 µM in data set [5]; 12.5 µM in [6]; 3 µM in data set [9]. In addition, the figures for the MIC in data set [11], in [12] and in data set [13] were 1.5 µM, 6.25 µM and 3 µM, respectively. The “Cytotoxic effect on monocytes” value in [4] is reported as “not cytotoxic”. Further, in data set [7], the “Change in hemolytic activity as compared with temporin-SHa” value is “twofold decrease; also recorded: twofold reduction”. In [8], the HC50 at 1 hr is 50 µM. For the same substance, the “MIC, all Gram-negative strains tested” value in [10] amounted to 3 µM. In addition, the half-maximal inhibitory concentration (IC50) in data set [14] was approximately 10 µM.

Consider “FLSGIVGMLGKLF-NH2 [temporin-SHa, F-L-S-G-I-V-G-M-L-G-K-L-F]”, for which the minimum inhibitory concentration (MIC) turned out to be 10 µM in data set [1]; 6.25 µM in [2]; 10 µM in data set [3]; 31.25 µM in data set [15]; 3 µM in data set [5]; 15 µM in data set [6]. In addition, the MIC was determined as 10 µM in data set [9], 2.5 µM in data set [11], 7.9 µM in data set [12] and 31.25 µM in data set [13]. The “Cytotoxic effect on monocytes” value in data set [4] is listed as “not cytotoxic”. For the same substance, the HC50 at 1 hr in data set [8] was 25 µM. Besides, the half-inhibitory concentration (IC50) in data set [14] is approximately 20 µM.
